In data set [1] the test system is S. aureus (KCTC 1621). Type of data set: cell-based, Staphylococcus aureus. The settings on record: 10% Human Serum.
Data set [2] concerns S. epidermidis (KCTC 1917). Type of data set: cell-based, Staphylococcus epidermidis. Particulars: broth microdilution in MHB, 37 °C, 24 h, 100% inhibition of growth. On the procedure:
(§1) The antibacterial efficacy of the synthesized peptides was evaluated by determining the minimal inhibitory concentrations (MICs) against six standard bacterial strains and five drug-resistant bacterial strains using the Clinical and Laboratory Standards Institute (CLSI) microdilution method. Melittin served as the positive control.
(§2) The minimal inhibitory concentrations (MICs) of the peptides against bacterial strains were determined using a modified broth-microdilution method in accordance with the National Committee for Clinical Laboratory Standards (NCCLS) guidelines. Overnight cultures were diluted in cation-adjusted Mueller–Hinton Broth (MHB) to achieve an inoculum density of 2 × 10^6 CFU/mL. A two-fold serial dilution of the peptide solution (100 μL) was introduced into microtiter plates, followed by the addition of 100 μL of bacterial suspension. The plates were then incubated at 37 °C for 24 h to determine the MICs. Wells containing only culture media served as negative controls, while those with added bacteria functioned as positive controls. The MIC, expressed in μM, was defined as the lowest peptide concentration that prevented visible bacterial growth. This protocol was also employed to determine MICs in the presence of physiological salts (150 mM of NaCl, 4.5 mM of KCl, 6 μM of NH4Cl, 1 mM of MgCl2, 2.5 mM of CaCl2, and 4 μM of FeCl3) and 20% human serum to assess the peptides’ efficacy under conditions more closely resembling physiological environments. All experiments were conducted in triplicate and repeated three times independently to ensure reproducibility and statistical significance of the results.

For data set [3], the system named is S. typhimurium (KCTC 1926). Type of data set: cell-based, Salmonella typhimurium. Particulars: broth microdilution in MHB, 37 °C, 24 h, 100% inhibition of growth. On the procedure:
as §1, §2

The subject of data set [4] is MRSA (CCARM 3089). Type of data set: cell-based, methicillin-resistant Staphylococcus aureus. Particulars: broth microdilution in MHB, 37 °C, 24 h, 100% inhibition of growth. Here is the method: as §1, §2
For data set [5], the system named is MRSA (CCARM 3090). Type of data set: cell-based, methicillin-resistant Staphylococcus aureus. The settings on record: broth microdilution in MHB, 37 °C, 24 h, 100% inhibition of growth. On the procedure: as §1, §2
In general terms: Dilution methods test growth across graded concentrations, often in twofold steps.

The subject of data set [6] is E. coli (KCTC 1682). Type of data set: cell-based, Escherichia coli. Particulars: broth microdilution in MHB, 37 °C, 24 h, 100% inhibition of growth. Here is the method:
as §1, §2

The test system of data set [7] is MDRPA (CCARM 2095). The format is cell-based, multidrug-resistant Pseudomonas aeruginosa. The settings on record: for MICA: MIC of peptide alone: checkerboard, 37 °C, 24 h; for FICI: fractional inhibitory concentration index: peptide with ciprofloxacin, [A]/MICA + [B]/MICB. An excerpt:
Multidrug-resistant pathogens pose a significant challenge to both human and animal health. The steady decline in the discovery of new antibiotics has exacerbated the difficulty in developing effective therapies for infection control. Consequently, there is an urgent need for alternative strategies that can combat pathogens without inducing drug resistance. One such strategy involves the combination of different antimicrobial agents. The effects of antimicrobial peptides (AMPs) combined with conventional antibiotics often surpass those of individual drugs. […] The primary advantage of synergistic combinations lies in their ability to lower the concentration of each antimicrobial agent required for effective antibacterial activity. This approach offers several benefits, including reduced production costs, a decreased risk of adverse side effects, diminished toxicity to mammalian cells, and a lower likelihood of drug resistance development. In light of these potential advantages, we investigated the synergistic effects of BP100 and the five selected analogs in combination with ciprofloxacin against multidrug-resistant Pseudomonas aeruginosa (MDRPA) using a checkerboard synergy assay. Ciprofloxacin, an antibiotic belonging to the fluoroquinolone class, is commonly used to treat various bacterial infections, including urinary tract infections and pneumonia. It exerts a bactericidal effect by inhibiting bacterial DNA gyrase, thereby disrupting DNA replication and transcription […]. The fractional inhibitory concentration index (FICI) results for BP100 and its selected analogs, when paired with ciprofloxacin against MDRPA, are detailed in Table 5. […] Such combinations may offer a valuable approach to enhancing the efficacy of existing antibiotics and potentially mitigating the development of antimicrobial resistance.
The synergistic effects of peptide-antibiotic combinations against methicillin-resistant Staphylococcus aureus (MRSA; CCARM 3089) and multidrug-resistant Pseudomonas aeruginosa (MDRPA; CCARM 2095) were evaluated using the fractional inhibitory concentration index (FICI) method. Antibiotics and peptides were subjected to two-fold serial dilutions, mixed in equal ratios, and combined with a bacterial suspension adjusted to approximately 10^6 CFU/mL. The resulting mixtures were distributed into microplate wells and incubated at 37 °C with orbital shaking at 200 rpm for 24 h. Bacterial growth was monitored by measuring the optical density at 600 nm (OD600). The FICI was calculated using the broth microdilution checkerboard method, defined as the sum of the ratios of the minimum inhibitory concentrations (MICs) of each agent in combination to their individual MICs, according to the following equation: FICI = (MIC of antibiotic in combination/MIC of antibiotic alone) + (MIC of peptide in combination/MIC of peptide alone). The interpretation of FICI values was as follows: FICI ≤ 0.5 indicates synergy; 0.5 < FICI ≤ 1.0 indicates an additive effect; 1.0 < FICI ≤ 4.0 indicates indifference; and FICI > 4.0 indicates antagonism.

In data set [8] the test system is sheep red blood cells (sRBCs). The data set is described as follows: Hemolytic activity assay. Type of data set: cell-based. The settings on record: 4% (v/v) sheep red blood cells in PBS, 1 h, 37 °C; 1 to 256 μM tested. Here is the method: To assess toxicity in mammalian cells, we evaluated the hemolytic activity of the peptides on sheep red blood cells (sRBCs). […] The therapeutic index (TI), a measure commonly employed to evaluate the cell selectivity of antibacterial agents, was calculated as the ratio of the concentration causing 10% hemolysis of sRBCs (HC10) to the GM [19, 20, 21, 22].
The hemolytic activity of the peptides was tested through hemolysis assay of sheep red blood cells (sRBCs). The sRBCs were diluted in PBS to achieve a 4% (v/v) concentration. Subsequently, 100 μL of peptide solutions, ranging from 1 to 256 μM, was dispensed into a 96-well plate containing an equal volume of the erythrocyte suspension. After incubating for 1 h at 37 °C and centrifuging at 1000× g for 10 min, 100 μL of the supernatant was transferred to a new 96-well plate. Hemoglobin release was quantified using a microplate reader at a wavelength of […]. The percentage of hemolysis was calculated using percentage hemolysis = 100 × [[…]], where A represents the absorbance of the peptide-treated sample at 540 nm, A0 corresponds to the absorbance value representing 0% hemolysis in PBS, and At corresponds to the absorbance value representing 100% hemolysis in 0.1% Triton X-100.

Data set [9] deals with B. subtilis (KCTC 3068). The format is cell-based, Bacillus subtilis. Particulars: broth microdilution in MHB, 37 °C, 24 h, 100% inhibition of growth. On the procedure: as §1, §2
Data set [10] concerns P. aeruginosa (KCTC 1637). The format is cell-based, Pseudomonas aeruginosa. The settings on record: broth microdilution in MHB, 37 °C, 24 h, 100% inhibition of growth. Here is the method:
as §1, §2

Converted amounts (≈) assume the structure as drawn. Where no end group is shown, it is not given here.

Here are results for six compounds from paper PMC11596392, “Enhanced Antibacterial, Anti-Inflammatory, and Antibiofilm Activities of Tryptophan-Substituted Peptides Derived from Cecropin A-Melittin Hybrid Peptide BP100” (Molecules, 2024).

The term MIC denotes the smallest concentration in the dilution series that meets the test's criterion for growth inhibition.

As for `CC[C@H](C)[C@H](NC(=O)[C@H](CCCCN)NC(=O)[C@H](CCCCN)NC(=O)[C@H](Cc1ccccc1)NC(=O)[C@H](CC(C)C)NC(=O)[C@H](CCCCN)NC(=O)[C@@H](N)CCCCN)C(=O)N[C@@H](CC(C)C)C(=O)N[C@@H](CCCCN)C(=O)N[C@@H](Cc1ccc(O)cc1)C(=O)N[C@@H](CC(C)C)C(N)=O` [BP100], the MIC in data set [1] was 32 µM (≈ 45.5 µg/mL). Further, the “Minimal Inhibitory Concentration (MIC)” value in data set [2] was 4 µM; in [3], 4 µM; in data set [4] it was 32 µM; in data set [5], 64 µM; in data set [6] it was 4 µM; in [9], 8 µM. Moreover, the “Minimal Inhibitory Concentration (MIC)” value in data set [10] worked out at 16 µM. Also, in data set [7], the “MICA: MIC of peptide alone” value was 32 µg/mL. Moreover, the “FICI: fractional inhibitory concentration index” value in [7] is given as 0.375. For the same compound, the “HC10 (peptide concentration that caused 10% hemolysis)” value in [8] was >256 µM.
For the compound KKLFKKIWKWL-NH2 [BP11], in data set [1], the MIC is 8 µM. The “Minimal Inhibitory Concentration (MIC)” value amounted to 4 µM in data set [2]; 2 µM in data set [3]; 8 µM in [4]; 32 µM in data set [5]; 8 µM in [6]; 8 µM in data set [9]. In addition, in data set [10], the “Minimal Inhibitory Concentration (MIC)” value amounted to 8 µM. For the same compound, the “MICA: MIC of peptide alone” value in data set [7] worked out at 8 µg/mL. Also, the “FICI: fractional inhibitory concentration index” value in data set [7] is reported as 0.3125. The “HC10 (peptide concentration that caused 10% hemolysis)” value in data set [8] is >256 µM.
For KKLWKKILKWL-NH2 [BP8], the MIC in data set [1] was 4 µM. Also, the “Minimal Inhibitory Concentration (MIC)” value in [2] was 2 µM; in data set [3], 4 µM; in data set [4] it was 16 µM; in [5] it was 16 µM; in data set [6] it was 2 µM; in data set [9] it was 8 µM. Also, the “Minimal Inhibitory Concentration (MIC)” value in [10] was determined as 16 µM. The “MICA: MIC of peptide alone” value in data set [7] stood at 8 µg/mL. For the same compound, in data set [8], the “HC10 (peptide concentration that caused 10% hemolysis)” value was >256 µM.
Compound KKWFKKILKWL-NH2 [BP6] came in with an MIC in [1] of 4 µM. The “Minimal Inhibitory Concentration (MIC)” value in data set [2] stood at 2 µM; in [3], 4 µM; in data set [4], 8 µM; in [5], 16 µM; in [6], 4 µM; in data set [9] it was 4 µM. The “Minimal Inhibitory Concentration (MIC)” value in [10] worked out at 16 µM. For the same compound, in data set [7], the “MICA: MIC of peptide alone” value was 8 µg/mL. Besides, the “FICI: fractional inhibitory concentration index” value in [7] was 0.375. Besides, the “HC10 (peptide concentration that caused 10% hemolysis)” value in data set [8] was >256 µM.
In data set [1], KKWFKKWLKWL-NH2 [BP13] returned an MIC of 8 µM. The “Minimal Inhibitory Concentration (MIC)” value in data set [2] is 8 µM; in data set [3], 8 µM; in [4], 32 µM; in data set [5], 32 µM; in data set [6], 8 µM; in data set [9], 8 µM. For the same compound, the “Minimal Inhibitory Concentration (MIC)” value in [10] worked out at 16 µM. The “MICA: MIC of peptide alone” value in data set [7] turned out to be 8 µg/mL. Also, the “FICI: fractional inhibitory concentration index” value in [7] was found to be 0.2656. Also, in [8], the “HC10 (peptide concentration that caused 10% hemolysis)” value is >256 µM.
As for KKWWKKILKYL-NH2 [BP5], the MIC in [1] was found to be 4 µM. The “Minimal Inhibitory Concentration (MIC)” value in data set [2] is 1 µM; in data set [3] it was 2 µM; in data set [4] it was 4 µM; in [5] it was 8 µM; in data set [6], 2 µM; in [9], 2 µM. Also, the “Minimal Inhibitory Concentration (MIC)” value in [10] is 4 µM. In addition, the “MICA: MIC of peptide alone” value in [7] is 8 µg/mL. In data set [7], the “FICI: fractional inhibitory concentration index” value amounted to 0.3125. For the same compound, the “HC10 (peptide concentration that caused 10% hemolysis)” value in data set [8] is >256 µM.
